Results taken from ChEMBL document CHEMBL5724914, “Linking interpersonal differences in gut microbiota composition and drug biotransformation activity” (2024).

settings: human gut metagenome, 24 h, 2 µM
Further: call rule not given here.

Bacterial Biotransformation	Compound
Compound NOT metabolized	CN1C(C(=O)Nc2ccccn2)=C(O)c2sccc2S1(=O)=O [TENOXICAM]
Compound NOT metabolized	NC(CO)(CO)CO.O=C(c1ccccc1)c1ccc2n1CCC2C(=O)O (stereo not given) [KETOROLAC TROMETHAMINE]

settings: human gut metagenome, 24 h, 2 µM; remark: another data set of the same source

Bacterial Biotransformation	Compound
Compound NOT metabolized	CN1C(C(=O)Nc2ccccn2)=C(O)c2sccc2S1(=O)=O [TENOXICAM]
Compound metabolized	NC(CO)(CO)CO.O=C(c1ccccc1)c1ccc2n1CCC2C(=O)O (stereo not given) [KETOROLAC TROMETHAMINE]

assay: (§1) The drug is tested on WLS-082 corresponding to human gut metagenome with ENA study accession number: PRJEB37062 and ENA sample accession number: ERS12561751 for biotransformation under anaerobic condition. The drug concentrations were measured over 9 timepoints collected between 0 and 24 hours of incubation by liquid-chromatography-coupled mass spectrometry (LC–MS); settings: 2 µM

Bacterial Biotransformation	Compound
Compound NOT metabolized	CN1C(C(=O)Nc2ccccn2)=C(O)c2sccc2S1(=O)=O [TENOXICAM]
Compound metabolized	NC(CO)(CO)CO.O=C(c1ccccc1)c1ccc2n1CCC2C(=O)O (stereo not given) [KETOROLAC TROMETHAMINE]

settings: human gut metagenome, 24 h, 2 µM; remark: another data set of the same source

Bacterial Biotransformation	Compound
Compound NOT metabolized	CN1C(C(=O)Nc2ccccn2)=C(O)c2sccc2S1(=O)=O [TENOXICAM]
Compound metabolized	NC(CO)(CO)CO.O=C(c1ccccc1)c1ccc2n1CCC2C(=O)O (stereo not given) [KETOROLAC TROMETHAMINE]

settings: human gut metagenome, 24 h, 2 µM; remark: another data set of the same source

Bacterial Biotransformation	Compound
Compound NOT metabolized	CN1C(C(=O)Nc2ccccn2)=C(O)c2sccc2S1(=O)=O [TENOXICAM]
Compound metabolized	NC(CO)(CO)CO.O=C(c1ccccc1)c1ccc2n1CCC2C(=O)O (stereo not given) [KETOROLAC TROMETHAMINE]

settings: human gut metagenome, 24 h, 2 µM; remark: another data set of the same source

Bacterial Biotransformation	Compound
Compound NOT metabolized	CN1C(C(=O)Nc2ccccn2)=C(O)c2sccc2S1(=O)=O [TENOXICAM]
Compound metabolized	NC(CO)(CO)CO.O=C(c1ccccc1)c1ccc2n1CCC2C(=O)O (stereo not given) [KETOROLAC TROMETHAMINE]

assay: as §1, with “Z-009” for “WLS-082”, “pig” for “human”, “ERS12561809” for “ERS12561751”; settings: 2 µM

Bacterial Biotransformation	Compound
Compound NOT metabolized	CN1C(C(=O)Nc2ccccn2)=C(O)c2sccc2S1(=O)=O [TENOXICAM]
Compound NOT metabolized	NC(CO)(CO)CO.O=C(c1ccccc1)c1ccc2n1CCC2C(=O)O (stereo not given) [KETOROLAC TROMETHAMINE]

settings: human gut metagenome, 24 h, 2 µM; remark: another data set of the same source

Bacterial Biotransformation	Compound
Compound NOT metabolized	CN1C(C(=O)Nc2ccccn2)=C(O)c2sccc2S1(=O)=O [TENOXICAM]
Compound metabolized	NC(CO)(CO)CO.O=C(c1ccccc1)c1ccc2n1CCC2C(=O)O (stereo not given) [KETOROLAC TROMETHAMINE]

assay: as §1, with “Z-013” for “WLS-082”, “rabbit” for “human”, “ERS12561813” for “ERS12561751”; settings: 2 µM

Bacterial Biotransformation	Compound
Compound NOT metabolized	CN1C(C(=O)Nc2ccccn2)=C(O)c2sccc2S1(=O)=O [TENOXICAM]
Compound NOT metabolized	NC(CO)(CO)CO.O=C(c1ccccc1)c1ccc2n1CCC2C(=O)O (stereo not given) [KETOROLAC TROMETHAMINE]

settings: human gut metagenome, 24 h, 2 µM; remark: another data set of the same source

Bacterial Biotransformation	Compound
Compound NOT metabolized	CN1C(C(=O)Nc2ccccn2)=C(O)c2sccc2S1(=O)=O [TENOXICAM]
Compound metabolized	NC(CO)(CO)CO.O=C(c1ccccc1)c1ccc2n1CCC2C(=O)O (stereo not given) [KETOROLAC TROMETHAMINE]

assay: as §1, with “Z-001” for “WLS-082”, “mouse” for “human”, “ERS12561801” for “ERS12561751”; settings: 2 µM

Bacterial Biotransformation	Compound
Compound NOT metabolized	CN1C(C(=O)Nc2ccccn2)=C(O)c2sccc2S1(=O)=O [TENOXICAM]
Compound NOT metabolized	NC(CO)(CO)CO.O=C(c1ccccc1)c1ccc2n1CCC2C(=O)O (stereo not given) [KETOROLAC TROMETHAMINE]

assay: as §1, with “Z-027” for “WLS-082”, “to” for “to human gut”, “ERS12561826” for “ERS12561751”; settings: 2 µM

Bacterial Biotransformation	Compound
Compound NOT metabolized	CN1C(C(=O)Nc2ccccn2)=C(O)c2sccc2S1(=O)=O [TENOXICAM]
Compound metabolized	NC(CO)(CO)CO.O=C(c1ccccc1)c1ccc2n1CCC2C(=O)O (stereo not given) [KETOROLAC TROMETHAMINE]

assay: as §1, with “Z-020” for “WLS-082”, “rabbit” for “human”, “ERS12561819” for “ERS12561751”; settings: 2 µM

Bacterial Biotransformation	Compound
Compound NOT metabolized	CN1C(C(=O)Nc2ccccn2)=C(O)c2sccc2S1(=O)=O [TENOXICAM]
Compound metabolized	NC(CO)(CO)CO.O=C(c1ccccc1)c1ccc2n1CCC2C(=O)O (stereo not given) [KETOROLAC TROMETHAMINE]

assay: as §1, with “WLS-006” for “WLS-082”, “ERS12561741” for “ERS12561751”; settings: 2 µM

Bacterial Biotransformation	Compound
Compound NOT metabolized	CN1C(C(=O)Nc2ccccn2)=C(O)c2sccc2S1(=O)=O [TENOXICAM]
Compound metabolized	NC(CO)(CO)CO.O=C(c1ccccc1)c1ccc2n1CCC2C(=O)O (stereo not given) [KETOROLAC TROMETHAMINE]

settings: human gut metagenome, 24 h, 2 µM; remark: another data set of the same source

Bacterial Biotransformation	Compound
Compound NOT metabolized	CN1C(C(=O)Nc2ccccn2)=C(O)c2sccc2S1(=O)=O [TENOXICAM]
Compound metabolized	NC(CO)(CO)CO.O=C(c1ccccc1)c1ccc2n1CCC2C(=O)O (stereo not given) [KETOROLAC TROMETHAMINE]

assay: as §1, with “Z-007” for “WLS-082”, “rat” for “human”, “ERS12561807” for “ERS12561751”; settings: 2 µM

Bacterial Biotransformation	Compound
Compound NOT metabolized	CN1C(C(=O)Nc2ccccn2)=C(O)c2sccc2S1(=O)=O [TENOXICAM]
Compound NOT metabolized	NC(CO)(CO)CO.O=C(c1ccccc1)c1ccc2n1CCC2C(=O)O (stereo not given) [KETOROLAC TROMETHAMINE]

assay: as §1, with “Z-028” for “WLS-082”, “mouse” for “human”, “ERS12561827” for “ERS12561751”; settings: 2 µM

Bacterial Biotransformation	Compound
Compound NOT metabolized	CN1C(C(=O)Nc2ccccn2)=C(O)c2sccc2S1(=O)=O [TENOXICAM]
Compound NOT metabolized	NC(CO)(CO)CO.O=C(c1ccccc1)c1ccc2n1CCC2C(=O)O (stereo not given) [KETOROLAC TROMETHAMINE]

settings: human gut metagenome, 24 h, 2 µM; remark: another data set of the same source

Bacterial Biotransformation	Compound
Compound NOT metabolized	CN1C(C(=O)Nc2ccccn2)=C(O)c2sccc2S1(=O)=O [TENOXICAM]
Compound metabolized	NC(CO)(CO)CO.O=C(c1ccccc1)c1ccc2n1CCC2C(=O)O (stereo not given) [KETOROLAC TROMETHAMINE]

settings: human gut metagenome, 24 h, 2 µM; remark: another data set of the same source

Bacterial Biotransformation	Compound
Compound NOT metabolized	CN1C(C(=O)Nc2ccccn2)=C(O)c2sccc2S1(=O)=O [TENOXICAM]
Compound metabolized	NC(CO)(CO)CO.O=C(c1ccccc1)c1ccc2n1CCC2C(=O)O (stereo not given) [KETOROLAC TROMETHAMINE]

assay: as §1, with “Z-024” for “WLS-082”, “pig” for “human”, “ERS12561823” for “ERS12561751”; settings: 2 µM

Bacterial Biotransformation	Compound
Compound metabolized	CN1C(C(=O)Nc2ccccn2)=C(O)c2sccc2S1(=O)=O [TENOXICAM]
Compound metabolized	NC(CO)(CO)CO.O=C(c1ccccc1)c1ccc2n1CCC2C(=O)O (stereo not given) [KETOROLAC TROMETHAMINE]
